# Laboratory results published in ChEMBL document CHEMBL4422676, “Fragment-based screening of programmed death ligand 1 (PD-L1)” (Bioorg Med Chem Lett, 2019).
# Key:
# [1] = tested on: Programmed cell death 1 ligand 1 (Homo sapiens), Q9NZQ7 [UNDEFINED MUTATION]; test: Displacement of 15N-labelled PD1 from human 15N-labelled 6His-tagged PDL1 IgV domain H140E mutant (18 to 134 residues) at 800 uM assessed as rescue signal intensity by HMQC spectra analysis
# [2] = biological target: Programmed cell death 1 ligand 1 (Homo sapiens, UniProt Q9NZQ7, H140E); test: Binding affinity to human 15N-labelled 6His-tagged PDL1 IgV domain H140E mutant (18 to 134 residues) expressed in Escherichia coli BL21 (DE3) by 1D-1H NMR spectroscopy
# [3] = tested on: Programmed cell death 1 ligand 1 (Homo sapiens), Q9NZQ7 [UNDEFINED MUTATION]; test: Displacement of 15N-labelled PD1 from human 15N-labelled 6His-tagged PDL1 IgV domain H140E mutant (18 to 134 residues) at 2 mM assessed as rescue signal intensity by HMQC spectra analysis
# Sequence of Programmed cell death 1 ligand 1 (Homo sapiens), Q9NZQ7 [UNDEFINED MUTATION] (Q9NZQ7 whole entry, looked up, stated change not applied, the tested form may be a part): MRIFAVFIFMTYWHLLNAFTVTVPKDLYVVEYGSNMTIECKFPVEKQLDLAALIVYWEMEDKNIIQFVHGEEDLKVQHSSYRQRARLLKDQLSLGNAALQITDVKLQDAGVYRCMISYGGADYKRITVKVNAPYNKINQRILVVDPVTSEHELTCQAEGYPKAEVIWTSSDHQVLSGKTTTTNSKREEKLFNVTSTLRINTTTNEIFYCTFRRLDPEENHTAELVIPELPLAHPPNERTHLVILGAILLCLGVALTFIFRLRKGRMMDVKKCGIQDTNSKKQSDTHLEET
# Sequence of Programmed cell death 1 ligand 1 (Q9NZQ7 whole entry, looked up, stated change not applied, the tested form may be a part): as above
SMILES,Activity [1] [%],Kd [2],Kd ([2]; read-out: Kd) [µM],Activity [3] [%]
Cc1nc2cc(-c3ccccc3)ccc2o1,1 to 15,Nd(Insoluble),,
Cc1sc(N)nc1-c1ccc2c(c1)OCCO2,> 15,,1200,
CCN(CC)C(=O)c1sc2ccccc2c1Cl,> 15,,2500,
CNCc1ccc(-c2cc(Cl)cc(Cl)c2)o1,> 15,,1900,
COc1ccc2nc(NCc3cccnc3)sc2c1,1 to 15,,2900,
CC(=O)Oc1ccc2c(c1)cc(C)n2C,> 15,Nd(Insoluble),,
Oc1ncnc2scc(-c3ccccc3)c12,> 15,Nd(Insoluble),,75
Cc1cc(Nc2ccc(N3CCCC3)cc2)ncn1,1 to 15,,3000,
COC(=O)c1[nH]cc(-c2ccccc2F)c1N,1 to 15,Nd(Insoluble),,
